According to paper PMC3914206:

Key:
Type in all cases: binding
Design in all cases: KINOMEscan: ABL1(F317L)-phosphorylated / KINOMEscan: ABL1(H396P)-nonphosphorylated / KINOMEscan: ABL1(H396P)-phosphorylated / KINOMEscan: ABL1(M351T)-phosphorylated / KINOMEscan: ABL1(T315I)-phosphorylated / KINOMEscan: ABL1-nonphosphorylated / KINOMEscan: ABL1-phosphorylated / KINOMEscan: ACVR2A / KINOMEscan: ACVR2B / KINOMEscan: ADCK3 / KINOMEscan: ADCK4 / KINOMEscan: AKT1 / KINOMEscan: AKT3 / KINOMEscan: ALK / KINOMEscan: ARK5 / KINOMEscan: AURKA / KINOMEscan: AURKC / KINOMEscan: BIKE / KINOMEscan: BMPR1A / KINOMEscan: BMPR1B / KINOMEscan: BMX / KINOMEscan: BRK / KINOMEscan: BRSK1 / KINOMEscan: BRSK2 / KINOMEscan: CAMK1 / KINOMEscan: CAMK1D / KINOMEscan: CAMK1G / KINOMEscan: CAMK2A / KINOMEscan: CAMK2B / KINOMEscan: AAK1 / KINOMEscan: CAMK2D / KINOMEscan: CAMK2G / KINOMEscan: ABL1(F317I)-nonphosphorylated / KINOMEscan: ABL1(F317I)-phosphorylated / KINOMEscan: ABL1(F317L)-nonphosphorylated: unit: % Ctrl
panel of 442 kinases [1] = target: T1, panel of 442 kinases (Homo sapiens, UniProt P35590); conditions: kinase TIE1; compound concentration 10 µM
T1 construct: purchased KINOMEscan
Excerpt: (§1) We assessed the selectivity of members of this scaffold using the KINOMEscan methodology across a near comprehensive panel of 442 kinases [[18,27]].

panel of 442 kinases [2] = target: T2, panel of 442 kinases (Homo sapiens, UniProt Q9Y2U5); conditions: Compound Concentration 10 µM
T2 construct: purchased KINOMEscan
T2 sequence (Q9Y2U5 1-619): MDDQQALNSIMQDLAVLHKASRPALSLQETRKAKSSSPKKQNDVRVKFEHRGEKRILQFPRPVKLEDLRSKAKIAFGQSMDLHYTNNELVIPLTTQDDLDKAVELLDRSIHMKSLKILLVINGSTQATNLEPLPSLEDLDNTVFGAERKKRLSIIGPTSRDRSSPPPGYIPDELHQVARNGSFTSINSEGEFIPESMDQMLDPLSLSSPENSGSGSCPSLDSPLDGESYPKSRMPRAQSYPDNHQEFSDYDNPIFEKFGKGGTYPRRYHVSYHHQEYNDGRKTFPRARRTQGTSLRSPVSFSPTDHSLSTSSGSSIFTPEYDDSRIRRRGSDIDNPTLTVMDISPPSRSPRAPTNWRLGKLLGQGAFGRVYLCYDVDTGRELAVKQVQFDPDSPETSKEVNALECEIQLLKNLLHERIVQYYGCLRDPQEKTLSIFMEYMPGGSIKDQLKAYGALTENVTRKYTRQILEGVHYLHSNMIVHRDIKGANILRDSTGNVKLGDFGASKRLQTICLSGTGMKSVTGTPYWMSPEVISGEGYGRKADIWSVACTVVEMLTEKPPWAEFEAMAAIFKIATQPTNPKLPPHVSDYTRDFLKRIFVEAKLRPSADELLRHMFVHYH
Excerpt: as §1

panel of 442 kinases [3] = target: T3, panel of 442 kinases (Homo sapiens, UniProt Q13705); conditions: Compound Concentration 10 µM
T3 construct: purchased KINOMEscan
Excerpt: as §1

T1 sequence (P35590 22-1138): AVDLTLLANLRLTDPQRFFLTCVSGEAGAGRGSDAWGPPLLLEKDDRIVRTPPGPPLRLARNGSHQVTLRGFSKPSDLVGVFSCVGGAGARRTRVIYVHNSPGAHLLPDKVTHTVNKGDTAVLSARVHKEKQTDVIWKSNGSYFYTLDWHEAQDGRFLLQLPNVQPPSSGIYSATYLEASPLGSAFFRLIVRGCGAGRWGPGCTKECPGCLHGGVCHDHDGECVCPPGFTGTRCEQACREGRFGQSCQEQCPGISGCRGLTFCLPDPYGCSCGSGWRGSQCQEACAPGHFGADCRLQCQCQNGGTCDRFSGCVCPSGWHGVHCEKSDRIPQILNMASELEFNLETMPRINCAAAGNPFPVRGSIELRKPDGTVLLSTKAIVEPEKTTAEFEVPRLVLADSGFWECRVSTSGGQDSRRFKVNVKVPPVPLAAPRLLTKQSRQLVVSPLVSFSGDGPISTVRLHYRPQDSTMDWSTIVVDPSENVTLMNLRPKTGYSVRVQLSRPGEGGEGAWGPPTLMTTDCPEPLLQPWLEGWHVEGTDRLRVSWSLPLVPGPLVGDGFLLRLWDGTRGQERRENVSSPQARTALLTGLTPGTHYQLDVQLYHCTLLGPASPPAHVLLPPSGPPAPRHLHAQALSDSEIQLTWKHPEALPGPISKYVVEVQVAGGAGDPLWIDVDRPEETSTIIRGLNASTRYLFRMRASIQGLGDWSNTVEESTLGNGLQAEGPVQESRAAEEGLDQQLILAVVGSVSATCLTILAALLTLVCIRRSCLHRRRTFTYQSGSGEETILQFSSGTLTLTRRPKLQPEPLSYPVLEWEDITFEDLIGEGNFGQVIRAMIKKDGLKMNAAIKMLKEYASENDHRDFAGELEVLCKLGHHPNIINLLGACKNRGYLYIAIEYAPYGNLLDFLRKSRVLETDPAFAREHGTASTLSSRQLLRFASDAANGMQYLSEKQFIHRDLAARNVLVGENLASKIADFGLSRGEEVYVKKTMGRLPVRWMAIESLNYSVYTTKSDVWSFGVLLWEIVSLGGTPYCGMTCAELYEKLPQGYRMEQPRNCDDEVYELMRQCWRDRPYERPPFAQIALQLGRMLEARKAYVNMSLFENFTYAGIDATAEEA
T3 sequence (Q13705 19-512): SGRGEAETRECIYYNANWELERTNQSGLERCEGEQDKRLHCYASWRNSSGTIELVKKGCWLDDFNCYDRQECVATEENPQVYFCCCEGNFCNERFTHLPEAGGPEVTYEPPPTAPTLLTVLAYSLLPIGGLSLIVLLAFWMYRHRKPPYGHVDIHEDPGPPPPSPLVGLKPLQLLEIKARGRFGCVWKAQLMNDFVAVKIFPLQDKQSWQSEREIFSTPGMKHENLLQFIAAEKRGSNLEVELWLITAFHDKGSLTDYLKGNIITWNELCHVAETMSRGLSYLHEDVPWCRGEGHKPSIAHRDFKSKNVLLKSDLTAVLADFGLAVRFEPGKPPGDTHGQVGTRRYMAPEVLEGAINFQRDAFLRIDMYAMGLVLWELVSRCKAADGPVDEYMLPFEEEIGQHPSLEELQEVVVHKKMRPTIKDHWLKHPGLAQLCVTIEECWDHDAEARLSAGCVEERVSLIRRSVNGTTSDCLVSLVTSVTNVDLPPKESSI

Compound | % Ctrl, TIE1 (panel of 442 kinases [1]) | KINOMEscan: MAP3K2 (panel of 442 kinases [2]) | KINOMEscan: ACVR2B (panel of 442 kinases [3])
COc1cc(C(=O)N2CCC(N3CCN(C)CC3)CC2)ccc1Nc1ncc2c(n1)N(C)c1ccccc1C(=O)N2C [15 (LRRK2-IN-1)] | 100 % Ctrl | 97 | 100
COc1cc(C(=O)N2CCC(N3CCN(C)CC3)CC2)ccc1Nc1ncc2c(n1)N1CCc3cccc(c31)C(=O)N2C [Compound 24] | 70 % Ctrl | – | –
COc1cc(C(=O)N2CCC(N3CCN(C)CC3)CC2)ccc1Nc1ncc2c(n1)N(C1CCCC1)c1ccccc1C(=O)N2C [Compound 25, 11-cyclopentyl-2-((2-methoxy-4-(4-(4-methylpiperazin-1-yl)piperidine-1-carbonyl)phenyl)amino)-5-methyl-5H-benzo[e]pyrimido[5,4-b][1,4]diazepin-6(11H)-one] | 100 % Ctrl | 90 | 91
CCOc1cc(C(=O)N2CCC(N3CCN(C)CC3)CC2)ccc1Nc1ncc2c(n1)N(C1CCCC1)c1ccccc1C(=O)N2C [Compound 26] | 100 % Ctrl | 100 | 100
